Measured values from patent US20100206809A1, “METHOD AND APPARATUS FOR TREATING ORGANIC MATTER-CONTAINING WATER” (KURITA WATER INDUSTRIES LTD., priority 2007, published 2010).

Key:
[1] = Daily change in flux through the RO membrane separator
Method: The water that had been subjected to the coagulation-filtration treatment was passed through a fixed-bed activated carbon column at an SV of 20 hr^−1 and then a softening column at an SV of 15 hr^−1. Next, an EDTA-based scale inhibitor (Welclean A801, manufactured by Kurita Water Industries Ltd.) was added in an amount of 10 mg/L (five times the weight of the concentration of calcium ions in softening column-treated water). […] Then the water was passed through an RO membrane separator (with an aromatic-polyamide ultra-low-pressure RO membrane “ES-20”, manufactured by Nitto Denko Corporation) at a permeate flow of 60 L/hr and a recovery rate of 80% to perform RO membrane separation treatment.
Treatment was performed under the same conditions as those in Example 10, except that the pH of the softening column-treated water was adjusted in such a manner that the pH of the RO feed water was 6 (Reference Example 1) or 8.5 (Reference Example 2).
In Example 10, Comparative Example 2, and Reference Examples 1 and 2, daily changes in flux through the RO membrane separator were measured.

viable cells [2] = assay: Viable cell counts at measuring points, nonionic surfactant-containing wastewater treatment (FIG. 2 embodiment)
Method: […] Next, an EDTA-based scale inhibitor (Welclean A801, manufactured by Kurita Water Industries Ltd.) was added in an amount of 10 mg/L (five times the weight of the concentration of calcium ions in softening column-treated water). NaOH was added to adjust the pH to 10.5. Then the water was passed through an RO membrane separator (with an aromatic-polyamide ultra-low-pressure RO membrane “ES-20”, manufactured by Nitto Denko Corporation) at a permeate flow of 60 L/hr and a recovery rate of 80% to perform RO membrane separation treatment.
In Example 10 and Comparative Example 2, viable cell counts were measured at several points.
In Examples 11 to 14, viable cell counts in the activated carbon-treated water and the softened water were measured.
In Examples 15 to 18, viable cell counts in the activated carbon-treated water and the softening column-treated water were measured.

viable cells [3] = assay: Viable cell counts at measuring points, industrial water treatment (FIG. 1 embodiment)
Method: The water that had been subjected to the coagulation-filtration treatment was passed through an activated carbon column at an SV of 20 hr^−1. Then the water was passed through an RO membrane separator (with an aromatic-polyamide ultra-low-pressure RO membrane “ES-20”, manufactured by Nitto Denko Corporation) at a permeate flow of 60 L/hr and a recovery rate of 80%.
In Example 1 and Comparative Example 1, viable cell counts were measured at several points.
In Examples 2 to 5, concentrations of combined chlorine in activated carbon feed water (water fed into the activated carbon column) and activated carbon-treated water (water from the activated carbon column) were measured, and viable cell counts in the activated carbon-treated water were measured.
In Examples 6 to 9, concentrations of combined chlorine and viable cell counts in the activated carbon-treated water were measured.

[4] = day 1, Example 10 (chloramine T 5 mg-Cl2/L) / Comparative Example 2 (NaClO 0.5 mg-Cl2/L), RO feed water pH 9.5
[5] = day 7, Example 10 (chloramine T 5 mg-Cl2/L) / Comparative Example 2 (NaClO 0.5 mg-Cl2/L), RO feed water pH 9.5
[6] = Example 11, chloramine T added 0.5 mg-Cl2/L (combined chlorine), SV 20 hr^-1, wastewater
[7] = Example 12, chloramine T added 0.8 mg-Cl2/L (combined chlorine), SV 20 hr^-1, wastewater
[8] = Example 15, SV through activated carbon column 10 hr^-1, combined chlorine 1 mg-Cl2/L, wastewater
[9] = Example 16, SV through activated carbon column 15 hr^-1, combined chlorine 1 mg-Cl2/L, wastewater
[10] = Example 10 (chloramine T, combined chlorine 5 mg-Cl2/L) / Comparative Example 2 (NaClO, free chlorine 0.5 mg-Cl2/L), wastewater TOC 20 mg/L, SV 20 hr^-1
[11] = Example 1 (chloramine T, combined chlorine 5 mg-Cl2/L) / Comparative Example 1 (NaClO, free chlorine 0.5 mg-Cl2/L), SV 20 hr^-1

Cc1ccc(S(=O)(=O)[N-]Cl)cc1.[Na+] [Chloramine T, sodium N-chloro-p-toluenesulfonamide trihydrate]
Reduction in flux through the RO membrane separator ([1]; Example 10, chloramine T 5 mg-Cl2/L, RO feed water pH 9.5): no reduction in flux
Flux [1, 4]: 1.0 m^3/m^2 · day
Flux ([1]; day 1, Reference Example 1, chloramine T 5 mg-Cl2/L, RO feed water pH 6): 0.98 m^3/m^2 · day
Flux ([1]; day 1, Reference Example 2, chloramine T 5 mg-Cl2/L, RO feed water pH 8.5): 0.99 m^3/m^2 · day
Flux [1, 5]: 0.95 m^3/m^2 · day
Flux ([1]; day 7, Reference Example 1, chloramine T 5 mg-Cl2/L, RO feed water pH 6): 0.98 m^3/m^2 · day
Flux ([1]; day 7, Reference Example 2, chloramine T 5 mg-Cl2/L, RO feed water pH 8.5): 0.97 m^3/m^2 · day
Flux ([1]; day 30, Example 10 (chloramine T 5 mg-Cl2/L) / Comparative Example 2 (NaClO 0.5 mg-Cl2/L), RO feed water pH 9.5): 0.95 m^3/m^2 · day
Flux ([1]; day 30, Reference Example 1, chloramine T 5 mg-Cl2/L, RO feed water pH 6): 0.97 m^3/m^2 · day
Flux ([1]; day 30, Reference Example 2, chloramine T 5 mg-Cl2/L, RO feed water pH 8.5): 0.97 m^3/m^2 · day
Flux ([1]; day 60, Example 10 (chloramine T 5 mg-Cl2/L), RO feed water pH 9.5): 0.93 m^3/m^2 · day
Flux ([1]; day 90, Example 10 (chloramine T 5 mg-Cl2/L), RO feed water pH 9.5): 0.93 m^3/m^2 · day
Viable cells at all measuring points (viable cells [2]; Example 10, combined chlorine 5 mg-Cl2/L, wastewater, SV 20 hr^-1): no viable cells were detected
Viable cell count, activated carbon-treated water (viable cells [2]; [6]): 3 × 10^4 cells/ml
Viable cell count, softened water (viable cells [2]; [6]): 4 × 10^5 cells/ml
Viable cell count, activated carbon-treated water (viable cells [2]; [7]): 6 × 10^3 cells/ml
Viable cell count, softened water (viable cells [2]; [7]): 8 × 10^4 cells/ml
Viable cell count, activated carbon-treated water (viable cells [2]; [8]): 9 × 10^4 cells/ml
Viable cell count, softened water (viable cells [2]; [8]): 2 × 10^6 cells/ml
Viable cell count, activated carbon-treated water (viable cells [2]; [9]): 2 × 10^5 cells/ml
Viable cell count, softened water (viable cells [2]; [9]): 7 × 10^6 cells/ml
Viable cells at all measuring points (viable cells [3]; Example 1, combined chlorine 5 mg-Cl2/L, SV 20 hr^-1): no viable cells were detected
Viable cell count in activated carbon-treated water (viable cells [3]; Example 2, combined chlorine in activated carbon feed water 0.5 mg/L, SV 20 hr^-1): 4 × 10^3 cells/ml
Viable cell count in activated carbon-treated water (viable cells [3]; Example 3, combined chlorine in activated carbon feed water 0.8 mg/L, SV 20 hr^-1): 5 × 10^3 cells/ml
Viable cell count in activated carbon-treated water (viable cells [3]; Example 6, SV through activated carbon column 10 hr^-1, combined chlorine 1 mg-Cl2/L): 9 × 10^3 cells/mil
Viable cell count in activated carbon-treated water (viable cells [3]; Example 7, SV through activated carbon column 15 hr^-1, combined chlorine 1 mg-Cl2/L): 2 × 10^3 cells/mil

OCl [NaClO, sodium hypochlorite, reference compound]
Flux [1, 4]: 0.98 m^3/m^2 · day
Flux [1, 5]: 0.96 m^3/m^2 · day
Viable cells detected in the activated carbon-treated water (viable cells [2]; Comparative Example 2, free chlorine 0.5 mg-Cl2/L, wastewater): 10^5 viable cells per milliliter
Viable cells detected in the softening column-treated water (viable cells [2]; Comparative Example 2, free chlorine 0.5 mg-Cl2/L, wastewater, sampled before the addition of the alkali): 10^6 viable cells per milliliter
Viable cell count, activated carbon-treated water (viable cells [2]; [10]): 10^5 cells/ml
Viable cell count, softened water (viable cells [2]; [10]): 10^6 cells/ml
Viable cells detected in the activated carbon-treated water (viable cells [3]; Comparative Example 1, free chlorine 0.5 mg-Cl2/L, SV 20 hr^-1): 10^3 viable cells per milliliter
Viable cell count, RO feed water (viable cells [3]; [11]): 4 × 10^3 cells/ml
Viable cell count, RO-concentrated water (viable cells [3]; [11]): 2 × 10^5 cells/ml
Viable cell count, activated carbon-treated water (viable cells [3]; [11]): 5 × 10^3 cells/ml
